In data set [1] the test system is MDCK-MDR1 cells. Description: Cell migration of MDCK-MDR1 cells, Transwell filters. It counts as cell-based, canine. As to conditions: 20 μg/ml, Transwell 8 μm precoated with 0.15% gelatin, 10% serum as chemoattractant (FIGS. 3A, 3B). The protocol:
The effect of both compounds on cell migration, was determined by the migration of MDCK-MDR1 cells using Transwell filters (Costar; 8 μm pore size) precoated with 0.15% gelatin. Briefly, 1×10^5 cells were resuspended in 100 μl of serum-free medium with or without compounds (20 μg/ml). The lower chamber of the Transwell contained 10% serum used as chemoattractant. Cell migration was determined using a Nikon TMS-F microscope and Northern Eclipse Software. As observed in FIGS. 3A and 3B, pepPgp and pepCav inhibited cells migration of MDCK-MDR1 by 30% and 80%, respectively, as compared to the control.

For data set [2], the system named is P-gp. Description: Brain uptake of [3H]-Taxol in vivo (P-gp efflux transport at the blood brain barrier). The arrangement: species or system mice. As to conditions: peptide 20 μg/ml; for reduction of [3H]-Taxol in the capillaries and in the parenchyma relative to total brain: [3H]-Taxol perfused 5 minutes; for reduction of Taxol passage in the total brain vs control mice: [3H]-Taxol perfused through right jugular vein for 5 minutes, total brain (FIG. 2). How it is done: The effect of compounds on P-gp efflux transport activity was investigated in vivo. For this purpose, the brain uptake of [^3H]-Taxol, a specific substrate of P-gp, was measured. [^3H]-Taxol was perfused into the brain through the right jugular vein for 5 minutes in the presence or absence of pepCav or pepPgp at a concentration of 20 μg/ml. Radioactivity of [^3H]-Taxol was analyzed in the total brain, the capillary and the parenchyma.

The test system of data set [3] is human umbilical vein endothelial cells (HUVEC). Description: HUVEC tube formation on Matrigel (angiogenesis in vitro). The data set is classed as cell-based. As to conditions: 40 μg/ml, 18 hours (FIG. 4A). The protocol: The effect of these compounds on angiogenesis was evaluated in vitro using human umbilical vein endothelial cells (HUVEC) tube formation on Matrigel. Following transfections, cells were trypsinized and 2.5×10^4 cells were seeded on Matrigel. After cellular adhesion, the medium was removed and 100 μl fresh medium was added with or without 40 μg/ml of either pepCav or pepPgp. Tube formation was evaluated after 18 hours. After incubation, tubular structures were visualized at 60× magnification using a Nikon TMS-F microscope and Northern Eclipse Software.

For data set [4], the system named is angiogenesis. Kind of data set: Matrigel plug assay (angiogenesis in vivo), hemoglobin content. As to conditions: Matrigel with heparin and bFGF under the skin of mice, plug removed after one week; 100 μg/ml in the method, 40 μg/ml in the result sentence (FIG. 4B). How it is done:
The effect of these compounds on angiogenesis was evaluated in vivo using the Matrigel plug assay. Briefly, Matrigel containing heparin and bFGF was injected under the skin of mice in the presence or absence of 100 μg/ml pepCav and pepPgp. The Matrigel plug was removed after one week. Hemoglobin content in the Matrigel plugs, which corresponds to the vessels formed, was measured.

For data set [5], the target named is P-gp (Homo sapiens, UniProt P08183).

Where two headings read alike, the source gives them in different places.

P-gp (Homo sapiens, UniProt P08183), sequence (P08183 whole entry): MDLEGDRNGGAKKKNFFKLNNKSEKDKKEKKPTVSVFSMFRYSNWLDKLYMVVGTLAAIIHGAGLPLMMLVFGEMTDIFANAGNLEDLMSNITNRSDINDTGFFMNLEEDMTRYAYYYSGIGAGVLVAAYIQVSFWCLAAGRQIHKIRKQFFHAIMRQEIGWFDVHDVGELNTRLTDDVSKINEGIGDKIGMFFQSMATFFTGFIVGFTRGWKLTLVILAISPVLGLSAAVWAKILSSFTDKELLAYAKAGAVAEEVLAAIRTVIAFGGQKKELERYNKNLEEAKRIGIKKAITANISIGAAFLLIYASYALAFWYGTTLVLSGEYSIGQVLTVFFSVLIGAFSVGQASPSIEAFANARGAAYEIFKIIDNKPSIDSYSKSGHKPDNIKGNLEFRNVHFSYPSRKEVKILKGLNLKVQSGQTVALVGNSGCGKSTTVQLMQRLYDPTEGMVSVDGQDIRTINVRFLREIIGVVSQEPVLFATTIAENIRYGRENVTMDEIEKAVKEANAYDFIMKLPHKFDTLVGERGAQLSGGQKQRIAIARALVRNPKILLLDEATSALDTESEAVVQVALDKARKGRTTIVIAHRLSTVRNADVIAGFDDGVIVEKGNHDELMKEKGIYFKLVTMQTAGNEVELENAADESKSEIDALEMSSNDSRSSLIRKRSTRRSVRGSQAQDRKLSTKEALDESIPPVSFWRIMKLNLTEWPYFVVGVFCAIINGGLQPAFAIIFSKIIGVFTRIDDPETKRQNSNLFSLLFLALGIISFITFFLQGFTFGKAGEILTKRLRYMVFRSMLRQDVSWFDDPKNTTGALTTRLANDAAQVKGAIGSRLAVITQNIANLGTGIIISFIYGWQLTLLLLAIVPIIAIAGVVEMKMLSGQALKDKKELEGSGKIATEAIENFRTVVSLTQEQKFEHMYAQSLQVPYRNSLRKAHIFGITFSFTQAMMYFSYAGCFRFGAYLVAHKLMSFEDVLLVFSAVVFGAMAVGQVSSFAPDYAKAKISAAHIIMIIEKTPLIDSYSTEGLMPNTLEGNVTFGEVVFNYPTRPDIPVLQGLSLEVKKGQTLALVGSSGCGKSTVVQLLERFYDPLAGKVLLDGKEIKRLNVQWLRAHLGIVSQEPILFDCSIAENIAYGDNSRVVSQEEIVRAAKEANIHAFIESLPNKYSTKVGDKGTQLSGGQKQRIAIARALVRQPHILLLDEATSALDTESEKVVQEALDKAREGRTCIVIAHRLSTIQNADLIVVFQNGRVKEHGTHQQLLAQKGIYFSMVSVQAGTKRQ

In the case of DGIWKASFTTFTVTKYWFYR [pepCav], the “inhibition of cell migration of MDCK-MDR1 vs control” value in data set [1] was 80%. Also, in data set [2], the “reduction of [3H]-Taxol in the capillaries and in the parenchyma relative to total brain” value is “similar”; the “reduction of Taxol passage in the total brain vs control mice” value was 50%. Moreover, in data set [3], the “reduction of capillary-like structure formation” value came out at 75%. Further, in data set [4], the “reduction of hemoglobin content in Matrigel plug vs control (bFGF alone)” value is reported as 25%. In data set [5] (MDCK-MDR1 cells, 20 μg/ml peptide, different times following treatment (FIG. 1A)), the “accumulation of [3H]-vinblastine as a function of time” value was “decreased as a function of time”. In data set [5] (MDCK-MDR1 cells, increasing concentrations (FIG. 1B)), the “[3H]-vinblastine accumulation with increasing concentrations of compound” value is “reduced”.

For VFSMFRYSNWLDK [pepPgp], the “inhibition of cell migration of MDCK-MDR1 vs control” value in data set [1] is given as 30%. In data set [2], the “reduction of [3H]-Taxol in the capillaries and in the parenchyma relative to total brain” value is listed as “similar”; the “reduction of Taxol passage in the total brain vs control mice” value is given as 30%. In data set [3], the “reduction of capillary-like structure formation” value turned out to be 40%. Also, in data set [4], the “reduction of hemoglobin content in Matrigel plug vs control (bFGF alone)” value is listed as 40%. Besides, in data set [5], the “[3H]-vinblastine accumulation with increasing concentrations of compound” value is recorded as “reduced”.
